Assay results taken from patent publication US7449466B2, “Cyclic aminophenyl sulfamate derivative” (Aska Pharmaceutical Co., Ltd., priority 2003, dated 2008).

Experiments:
[1] = system: Chinese hamster lung fibroblast cells (CHL/IU cells); assay: In vitro micronucleus cell induction test; type: cell-based
Procedure: (5) In vitro Micronucleus Cell Induction Test for Examining Genetic Toxicity: Presence of micronucleited cell-inducing activity of the test compounds on cultured cells due to chromosome aberration was examined by in vitro micronucleus test (mutagenesis test, 3, 238-245) by Lab-Tek method. The test was conducted by continuous treatment method, using Chinese hamster lung fibroblast cells (CHL/IU cells). The test compound concentration was set at three levels: 50% proliferation inhibitory concentration (IC50), and at the concentration levels attained by diluting it by common ratio one time and two times. […] One (1) mL of 0.075 M aqueous potassium chloride solution was added and a 5 minutes' hypotonic treatment was conducted at room temperature. After termination of the hypotonic treatment, the cells were fixed with a fixative (methanol: acetic acid=99:1). The slide detached from the chamber was stained with an aqueous […] orange solution (40 μg/mL). […] In the case wherein the micronucleited cells increased by a rate twice or more than that in the control well to which the solvent only had been added, the micronucleited cell induction activity was judged positive, and in the case wherein the increase rate was equivalent to that of the control, negative. The test results were as shown in the following Table 4, concurrently with the results of the test (4).

[2] = system: Salmonella typhimurium TA100 and TA98, and Escherichia coli WP2 uvrA strains; assay: Miniscreen method, bacterial reverse mutation, with and without metabolic activation; type: cell-based; details: 10-1,000 μg/well; with and without Rat Liver S9mix; positive = revertant colonies twice or more of control
Procedure: (4) Miniscreen Method for Examining Presence of Genetic Toxicity:
Reverse mutation-inducing activity of the test comounds on bacteira was examined by Miniscreen method (Environ. Mol. Mutagen., 35, 72-77). Salmonella typhimurium TA100 and TA98, and Escherichia coli WP2 uvrA strains were used for the test. The test was conducted by plate incorporation method as to both cases where metabolic activation was not conducted, or conducted. The dosages were set at six levels as 0, 10, 50, 100, 500 and 1,000 μg/well.
To the minimum glucose-agar medium formed on a 6-well plate, 0.02 mL of a test compound solution or a solvent, 0.1 mL of 0.1 M sodium-phosphate buffer (pH=7.4), 0.025 mL of the bacterial suspension and 0.5 mL of soft agar solution were added per well and mixed. Where metabolic activation was conducted, 0.1M sodium-phosphate buffer (pH=7.4) was replaced with 0.1 mL of Rat Liver S9mix. After the soft agar solution solidified, the bacterial strains were cultured at 37° C. for 48 hours. At the end of the culture the number of revertant colonies on the plate was visually counted using a colony counter. Reverse mutation inducing activity of each of the test compounds was judged to be positive where the number of the revertant colonies increased by twice or more than that in the solvent-added control well, and judged negative where the increase was equivalent to the control. […]

## N#Cc1cc(OS(N)(=O)=O)ccc1N1CCN(CCCC2CCCCC2)CC1 [Example 13, 3-cyano-4-[4-(3-cyclohexylpropyl)piperazin-1-yl]-phenyl-O-sulfamate]
[1]
  In vitro micronucleited cell induction test: negative
[2]
  Miniscreen method (reverse mutation inducing activity): negative
